Converted amounts (≈) assume the structure as drawn.
Conditions: buffer; pH 7.4; 200.0 µM

Q: For `Cc1cccc(NC(=O)COC(=O)[C@@H]2CCCN2C(=O)c2cccs2)c1`, which solubility kinetic is on record?
A: The solubility kinetic was 2.8 µg/mL (≈ 7.52 µM).

Q: Which solubility kinetic does the source give for `CCN1CCOC(CC(=O)Nc2ccc([N+](=O)[O-])cc2)C1=O` (centres undefined) here?
A: The solubility kinetic was 40.2 µg/mL (≈ 131 µM).

Q: Which solubility kinetic does the source give for `Cc1cccc(Nc2c3c(nc4ccccc24)CCC3)c1.Cl` here?
A: The solubility kinetic was 44.9 µg/mL.

Q: For `Cc1cc([N+](=O)[O-])ccc1NC(=O)c1cc2ccccc2o1`, which solubility kinetic is on record?
A: The solubility kinetic was < 0.3 µg/mL.

Q: With `CC(NC(=O)Nc1cccc(F)c1)c1ccc2c(c1)OCO2` (centres undefined) as the compound, how does the solubility kinetic read?
A: The solubility kinetic was 2.1 µg/mL (≈ 6.95 µM).

Q: Which solubility kinetic does the source give for `Cc1cc(-c2ccccc2)nc2c(Br)c(=O)[nH]n12` here?
A: The solubility kinetic was > 45.6 µg/mL.

Q: Which solubility kinetic does the source give for `O=C(COc1ccccc1)Nc1ccccc1F` here?
A: Its solubility kinetic is 32.7 µg/mL (≈ 133 µM).

Q: With `Br.COc1ccc(C2=CSC3=NCCN23)cc1` as the compound, how does the solubility kinetic read?
A: The solubility kinetic was > 47 µg/mL.

Q: Which solubility kinetic does the source give for `Cc1[nH]c2ccccc2c1SCC(=O)N1CCCCC1` here?
A: Its solubility kinetic is 40.4 µg/mL (≈ 140 µM).

Q: With `COc1ccc(OCc2cc(=O)[nH]c3ccccc23)cc1` as the compound, how does the solubility kinetic read?
A: Its solubility kinetic is 2.9 µg/mL (≈ 10.3 µM).

Q: For `CCOc1ccccc1N1CCN(Cc2cnc(-c3ccccc3)[nH]2)CC1`, which solubility kinetic is on record?
A: Its solubility kinetic is > 54.4 µg/mL.

Q: For `CC(=O)c1cc(C)ccc1OC(=O)c1ccncc1`, which solubility kinetic is on record?
A: The solubility kinetic was 35.8 µg/mL (≈ 140 µM).

Q: With `O=C1CN(S(=O)(=O)c2ccc(F)cc2)c2ccccc2N1` as the compound, how does the solubility kinetic read?
A: Its solubility kinetic is > 45.9 µg/mL.

Q: For `CCCC(=O)Nc1ccc2oc(-c3cncc(Br)c3)nc2c1`, which solubility kinetic is on record?
A: The solubility kinetic was 0.6 µg/mL (≈ 1.67 µM).

Q: Which solubility kinetic does the source give for `CSc1nsc(SC)c1NC(=O)Nc1ccccc1C` here?
A: Its solubility kinetic is 1 µg/mL (≈ 3.07 µM).

Q: For `Cc1sc2ncnc(NS(=O)(=O)c3ccc(Cl)cc3)c2c1C`, which solubility kinetic is on record?
A: Its solubility kinetic is 47.8 µg/mL (≈ 135 µM).

Q: With `Cc1ccccc1C1NC(=S)NC2=C1C(=O)CC(C)(C)C2` (centres undefined) as the compound, how does the solubility kinetic read?
A: The solubility kinetic was 39.3 µg/mL (≈ 131 µM).

Q: With `COc1ccccc1C(=O)NS(=O)(=O)c1ccc(C)cc1` as the compound, how does the solubility kinetic read?
A: Its solubility kinetic is > 45.8 µg/mL.

Q: Which solubility kinetic does the source give for `CCOC(=O)c1c(C)[nH]c(C(=O)OCc2ccccc2F)c1C` here?
A: The solubility kinetic was < 0.7 µg/mL.

Q: With `Cc1ccc(-n2c(O)c(C=NCC3CCCO3)c(=O)[nH]c2=O)c(C)c1` (centres undefined) as the compound, how does the solubility kinetic read?
A: The solubility kinetic was > 51.5 µg/mL.

Q: Which solubility kinetic does the source give for `Cc1ccc(S(C)(=O)=NC(=O)NC(=O)c2c(F)cccc2Cl)cc1` (centres undefined) here?
A: The solubility kinetic was 41.1 µg/mL (≈ 111 µM).

Q: Which solubility kinetic does the source give for `Cc1ccc(Sc2ncccc2N)cc1` here?
A: Its solubility kinetic is 32.2 µg/mL (≈ 149 µM).

Q: For `CCCn1c(CCNC(=O)c2ccco2)nc2ccccc21`, which solubility kinetic is on record?
A: Its solubility kinetic is 41.7 µg/mL (≈ 140 µM).

Q: Which solubility kinetic does the source give for `CN1CCN(c2ccc(NC(=O)CN3CCOCC3)cc2F)CC1` here?
A: Its solubility kinetic is > 50.5 µg/mL.

Q: Which solubility kinetic does the source give for `COc1ccc(C(=O)NCCCCc2ccccc2)cc1` here?
A: The solubility kinetic was 2.9 µg/mL (≈ 10.2 µM).

Q: Which solubility kinetic does the source give for `CCCc1ccc(C(C)NC(=S)NC2CCCCC2)cc1` (centres undefined) here?
A: The solubility kinetic was 1.2 µg/mL (≈ 3.94 µM).

Q: For `Cc1ccc(S(=O)(=O)N2CCOCC2)cc1C(=O)NCCc1ccc(Cl)cc1`, which solubility kinetic is on record?
A: The solubility kinetic was 26 µg/mL (≈ 61.5 µM).

Q: For `CCOC(=O)C1CCCCN1Cc1ccc(-c2ccccc2)cc1` (centres undefined), which solubility kinetic is on record?
A: The solubility kinetic was 1.5 µg/mL (≈ 4.64 µM).

Q: For `NC(=O)Cn1nc([N+](=O)[O-])nc1Oc1ccccc1F`, which solubility kinetic is on record?
A: The solubility kinetic was > 42.2 µg/mL.

Q: For `O=C(CCN=C1NS(=O)(=O)c2ccccc21)Nc1ccc(F)cc1Cl`, which solubility kinetic is on record?
A: Its solubility kinetic is > 57.3 µg/mL.

Q: With `CN(C)CC(C)(C)CNc1ccc(S(=O)(=O)N2CCCC2)cn1` as the compound, how does the solubility kinetic read?
A: The solubility kinetic was > 51.1 µg/mL.

Q: For `CCOc1ccc(NC(=S)NC(=O)Cc2ccccc2)cc1`, which solubility kinetic is on record?
A: Its solubility kinetic is 1.8 µg/mL (≈ 5.73 µM).

Q: With `Cc1ccccc1OCC(=O)OC(C)C(=O)NC1CCCC1` (centres undefined) as the compound, how does the solubility kinetic read?
A: Its solubility kinetic is > 45.8 µg/mL.

Q: With `COc1ccc(C(=O)OCC(=O)N2CCc3ccccc3C2)cc1OC` as the compound, how does the solubility kinetic read?
A: Its solubility kinetic is > 53.3 µg/mL.

Q: With `Nc1nc(Nc2cccc(Cl)c2)nc(NCc2ccco2)c1[N+](=O)[O-]` as the compound, how does the solubility kinetic read?
A: The solubility kinetic was 3 µg/mL (≈ 8.32 µM).

Q: Which solubility kinetic does the source give for `COc1ccc(CNC2CC(C)N(C)CC2C)cc1OC.Cl` (centres undefined) here?
A: Its solubility kinetic is 50.9 µg/mL.

Q: For `CCOC(=O)c1cn(CC)c2c(ccc3ccccc32)c1=O`, which solubility kinetic is on record?
A: The solubility kinetic was < 0.6 µg/mL.

Q: Which solubility kinetic does the source give for `Cn1ccnc1SCC(=O)Nc1cccc(C#N)c1` here?
A: Its solubility kinetic is > 40.8 µg/mL.

Q: With `N#Cc1ccccc1CN1C(=O)c2ccccc2S1(=O)=O` as the compound, how does the solubility kinetic read?
A: The solubility kinetic was 0.8 µg/mL (≈ 2.68 µM).

Q: For `CC(=O)N(c1nc(CCl)cs1)c1cccc(C)c1C`, which solubility kinetic is on record?
A: Its solubility kinetic is > 44.2 µg/mL.

Q: Which solubility kinetic does the source give for `COc1ccc(C(=O)OCC(=O)c2ccc(CNC(C)=O)s2)cc1` here?
A: Its solubility kinetic is > 52.1 µg/mL.

Q: Which solubility kinetic does the source give for `COc1ccccc1CNCc1ccc(OC)c2ccccc12` here?
A: The solubility kinetic was 33.7 µg/mL (≈ 110 µM).

Q: With `Cc1ccc(NC(=O)COC(=O)C2CCC(=O)N2)c([N+](=O)[O-])c1` (centres undefined) as the compound, how does the solubility kinetic read?
A: Its solubility kinetic is > 48.2 µg/mL.

Q: For `CC(=O)c1c(C)oc2ccc(NS(=O)(=O)c3ccc(C)cc3)cc12`, which solubility kinetic is on record?
A: Its solubility kinetic is < 0.7 µg/mL.

Q: For `O=C(O)Cc1ccc(-n2cccc2)cc1`, which solubility kinetic is on record?
A: The solubility kinetic was > 30.2 µg/mL.

Q: With `Cc1ccnc(NC(=O)c2ccco2)n1` as the compound, how does the solubility kinetic read?
A: The solubility kinetic was > 30.5 µg/mL.

Q: Which solubility kinetic does the source give for `Cc1ccc(C)c(NC(=O)C2COc3ccccc3O2)c1` (centres undefined) here?
A: The solubility kinetic was 3.5 µg/mL (≈ 12.4 µM).

Q: Which solubility kinetic does the source give for `O=C(COC(=O)COc1cc(Cl)c(Cl)cc1Cl)NC1CC1` here?
A: Its solubility kinetic is 23.6 µg/mL (≈ 66.9 µM).

Q: With `O=C(NCCc1ccco1)c1ccc(OCc2cn3ccccc3n2)cc1` as the compound, how does the solubility kinetic read?
A: Its solubility kinetic is > 54.2 µg/mL.

Q: With `Cc1ccc(C)c(S(=O)(=O)N2CCNCC2)c1` as the compound, how does the solubility kinetic read?
A: Its solubility kinetic is > 38.2 µg/mL.

Q: With `S=C(NCc1ccco1)Nc1ccc2c(c1)OCCO2` as the compound, how does the solubility kinetic read?
A: Its solubility kinetic is > 43.6 µg/mL.

Q: For `Cc1ccc2c(CC(=O)N3CCN(c4ccccc4)CC3)coc2c1`, which solubility kinetic is on record?
A: Its solubility kinetic is 8.1 µg/mL (≈ 24.2 µM).

Q: With `CCOC(=O)c1ccc(S(=O)(=O)N2CCN(C(=O)c3ccccn3)CC2)cc1` as the compound, how does the solubility kinetic read?
A: The solubility kinetic was > 60.5 µg/mL.

Q: With `O=C(CSc1nc2c(c(=O)[nH]1)CCC2)Nc1cccc(F)c1` as the compound, how does the solubility kinetic read?
A: Its solubility kinetic is 12.2 µg/mL (≈ 38.2 µM).

Q: For `CC(c1ccccc1)C(CC(=O)O)C(=O)Nc1ccc(Cl)c(Cl)c1` (centres undefined), which solubility kinetic is on record?
A: Its solubility kinetic is 46 µg/mL (≈ 126 µM).

Q: Which solubility kinetic does the source give for `CCN(CC(=O)N1CCCC1)S(=O)(=O)c1cc(C)ccc1OC` here?
A: Its solubility kinetic is 49.5 µg/mL (≈ 145 µM).

Q: With `Cc1cccc(C(=O)NC(=S)N(C)C2CCCCC2)c1` as the compound, how does the solubility kinetic read?
A: The solubility kinetic was 35.9 µg/mL (≈ 124 µM).

Q: With `NC(=O)C(Cc1ccccc1)NC(=O)C12CC3CC(CC(C3)C1)C2` (centres undefined) as the compound, how does the solubility kinetic read?
A: The solubility kinetic was 48.1 µg/mL (≈ 147 µM).

Q: With `C=C(C)c1ccccc1NC(=O)CCN1C(=O)c2ccccc2S1(=O)=O` as the compound, how does the solubility kinetic read?
A: Its solubility kinetic is > 55.6 µg/mL.

— PubChem BioAssay AID1996
